Each structure is given as a SMILES string.

One test concerns the target T1, human recombinant HDAC1 (Homo sapiens, UniProt Q13547).
T1 construct: purchased Enzo Life Science BML-SE456
The test is described as follows: HDAC1 enzyme activity inhibition test (HDAC Fluorometric Drug Discovery Kit). Type of test: biochemical. To be noted: 30° C., 60 minutes, 10 μM substrate. Here is the method: (§1) The following experiment was conducted to confirm the HDAC6 selectivity of the compound represented by Chemical Formula I of the present invention through the HDAC1 and HDAC6 enzyme activity inhibition test.
(§2) HDAC enzyme activity was measured using HDAC Fluorometric Drug Discovery Kit (BML-AK511, 516) manufactured by Enzo Life Science. For the HDAC1 enzyme activity test, human recombinant HDAC1 (BML-SE456) was used as an enzyme source and Fluor de Lys-®-″SIRT1 (BNL-KI177) was used as a substrate. The 5-fold diluted compound was dispensed in a 96-well plate, 0.3 μg of enzyme and 10 μM substrate were added to each well and reacted at 30° C. for 60 minutes, and Fluor de Lys® Developer II(BML-KI176) was added and reacted for 30 minutes to complete the reaction. Then, the fluorescence value (Ex 360, Em 460) was measured using a multiplate reader (Flexstation 3, Molecular Device). The HDAC6 enzyme was tested using the same protocol as the HDAC1 enzyme activity test method employing human recombinant HDAC6 (382180) from Calbiochem. For the final result, each […] value was calculated using the GraphPad Prism 4.0 program.

The target in a further test is T2, human recombinant HDAC6 (Homo sapiens, UniProt Q9UBN7).
T2 construct: purchased Calbiochem 382180
T2 sequence (Q9UBN7 1-1215): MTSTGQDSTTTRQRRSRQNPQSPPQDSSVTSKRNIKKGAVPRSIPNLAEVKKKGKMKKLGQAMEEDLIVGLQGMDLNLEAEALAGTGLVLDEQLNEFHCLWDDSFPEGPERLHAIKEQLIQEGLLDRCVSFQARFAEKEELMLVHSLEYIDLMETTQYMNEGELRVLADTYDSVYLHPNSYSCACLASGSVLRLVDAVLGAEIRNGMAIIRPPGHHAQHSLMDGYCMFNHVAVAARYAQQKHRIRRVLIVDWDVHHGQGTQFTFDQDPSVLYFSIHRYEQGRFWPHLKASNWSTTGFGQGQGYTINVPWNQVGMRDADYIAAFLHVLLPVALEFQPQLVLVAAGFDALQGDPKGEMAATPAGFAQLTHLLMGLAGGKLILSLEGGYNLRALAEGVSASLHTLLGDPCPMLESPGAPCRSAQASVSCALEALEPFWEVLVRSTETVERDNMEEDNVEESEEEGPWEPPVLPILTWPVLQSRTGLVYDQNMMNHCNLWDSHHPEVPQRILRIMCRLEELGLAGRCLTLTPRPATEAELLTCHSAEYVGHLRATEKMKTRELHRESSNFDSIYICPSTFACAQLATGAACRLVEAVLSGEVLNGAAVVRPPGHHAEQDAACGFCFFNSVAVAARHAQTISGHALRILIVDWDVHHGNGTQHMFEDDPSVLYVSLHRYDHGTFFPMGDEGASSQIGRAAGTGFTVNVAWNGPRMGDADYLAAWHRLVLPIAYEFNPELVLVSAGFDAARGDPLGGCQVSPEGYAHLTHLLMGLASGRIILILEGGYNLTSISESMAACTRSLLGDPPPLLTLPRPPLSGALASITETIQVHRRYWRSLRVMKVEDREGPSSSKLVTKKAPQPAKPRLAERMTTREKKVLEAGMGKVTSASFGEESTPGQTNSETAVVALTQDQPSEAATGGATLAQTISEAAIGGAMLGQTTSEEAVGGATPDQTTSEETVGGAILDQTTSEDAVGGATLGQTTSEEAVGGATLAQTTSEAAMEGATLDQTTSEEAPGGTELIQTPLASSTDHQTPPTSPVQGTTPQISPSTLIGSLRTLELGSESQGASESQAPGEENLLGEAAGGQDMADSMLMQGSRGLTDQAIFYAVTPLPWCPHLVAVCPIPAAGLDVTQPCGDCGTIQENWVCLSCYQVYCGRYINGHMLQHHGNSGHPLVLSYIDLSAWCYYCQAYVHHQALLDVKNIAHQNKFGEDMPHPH
The test is described as follows: HDAC6 enzyme activity inhibition test (HDAC Fluorometric Drug Discovery Kit). To be noted: for HDAC6 selectivity (fold): HDAC6 over HDAC1; for IC50: human recombinant HDAC6, same protocol as HDAC1. Type of test: biochemical. Here is the method: as §1, §2

T1 sequence (Q13547 whole entry): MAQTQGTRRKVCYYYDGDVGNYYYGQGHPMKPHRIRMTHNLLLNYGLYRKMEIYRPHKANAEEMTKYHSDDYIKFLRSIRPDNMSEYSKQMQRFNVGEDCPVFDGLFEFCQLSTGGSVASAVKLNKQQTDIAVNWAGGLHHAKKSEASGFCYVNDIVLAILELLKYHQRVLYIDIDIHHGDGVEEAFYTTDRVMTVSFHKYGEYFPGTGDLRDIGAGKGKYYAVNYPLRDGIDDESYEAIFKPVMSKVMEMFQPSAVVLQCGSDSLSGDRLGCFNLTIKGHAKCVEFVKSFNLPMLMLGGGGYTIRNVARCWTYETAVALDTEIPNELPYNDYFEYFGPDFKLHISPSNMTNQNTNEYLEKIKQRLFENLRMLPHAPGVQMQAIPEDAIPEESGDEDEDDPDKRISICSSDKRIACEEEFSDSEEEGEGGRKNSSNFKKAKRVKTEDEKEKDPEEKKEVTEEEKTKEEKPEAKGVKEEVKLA

Turning to `O=c1oc(-c2ccc(N3CCNCC3)cc2)nn1Cc1ccc(-c2nnc(C(F)F)o2)cn1` [Compound 20, 3-[[5-[5-(difluoromethyl)-1,3,4-oxadiazol-2-yl]-2-pyridyl]methyl]-5-(4-piperazin-1-ylphenyl)-1,3,4-oxadiazol-2-one], the IC50 on human recombinant HDAC1 was > 50000 nM. In addition, on human recombinant HDAC6, the “HDAC6 selectivity (fold)” value amounted to 653 fold and the half-maximal inhibitory concentration (IC50) came to 76.6 nM.
The corresponding values for `CN1CCN(c2ccc(-c3nn(Cc4ccc(-c5nnc(C(F)F)o5)cn4)c(=O)o3)cc2)CC1` [Compound 21, 3-[[5-[5-(difluoromethyl)-1,3,4-oxadiazol-2-yl]-2-pyridyl]methyl]-5-[4-(4-methylpiperazin-1-yl)phenyl]-1,3,4-oxadiazol-2-one] are > 50000 nM, 446 fold and 112 nM.
For `CC(C)N1CCN(c2ccc(-c3nn(Cc4ccc(-c5nnc(C(F)F)o5)cn4)c(=O)o3)cc2)CC1` [Compound 22, 3-[[5-[5-(difluoromethyl)-1,3,4-oxadiazol-2-yl]-2-pyridyl]methyl]-5-[4-(4-isopropylpiperazin-1-yl)phenyl]-1,3,4-oxadiazol-2-one], the half-inhibitory concentration (IC50) is > 50000 nM at human recombinant HDAC1 and 104 nM on human recombinant HDAC6. Moreover, the “HDAC6 selectivity (fold)” value at human recombinant HDAC6 stood at 479 fold.
On to `O=c1oc(-c2ccc(N3CCNCC3)cc2F)nn1Cc1ccc(-c2nnc(C(F)F)o2)cn1` [Compound 23, 3-[[5-[5-(difluoromethyl)-1,3,4-oxadiazol-2-yl]-2-pyridyl]methyl]-5-(2-fluoro-4-piperazin-1-yl-phenyl)-1,3,4-oxadiazol-2-one], for which the IC50 was > 50000 nM on human recombinant HDAC1 and 53.1 nM on human recombinant HDAC6. Further, at human recombinant HDAC6, the “HDAC6 selectivity (fold)” value came to 942 fold.
Regarding `CN1CCN(c2ccc(-c3nn(Cc4ccc(-c5nnc(C(F)F)o5)cn4)c(=O)o3)c(F)c2)CC1` [Compound 24, 3-[[5-[5-(difluoromethyl)-1,3,4-oxadiazol-2-yl]-2-pyridyl]methyl]-5-[2-fluoro-4-(4-methylpiperazin-1-yl)phenyl]-1,3,4-oxadiazol-2-one], the IC50 at human recombinant HDAC1 was > 50000 nM. For the same molecule, at human recombinant HDAC6, the “HDAC6 selectivity (fold)” value turned out to be 487 fold and the IC50 is 103 nM.
Taken in the same sequence, the figures for `CC(C)N1CCN(c2ccc(-c3nn(Cc4ccc(-c5nnc(C(F)F)o5)cn4)c(=O)o3)c(F)c2)CC1` [Compound 25, 3-[[5-[5-(difluoromethyl)-1,3,4-oxadiazol-2-yl]-2-pyridyl]methyl]-5-[2-fluoro-4-(4-isopropylpiperazin-1-yl)phenyl]-1,3,4-oxadiazol-2-one] were > 50000 nM, 642 fold and 77.9 nM.
Taken in the same sequence, the figures for `O=c1oc(-c2cccc(C3CCN(C4COC4)CC3)c2F)nn1Cc1ccc(-c2nnc(C(F)F)o2)cn1` [Compound 26, 3-[[5-[5-(difluoromethyl)-1,3,4-oxadiazol-2-yl]-2-pyridyl]methyl]-5-[2-fluoro-3-[1-(oxetan-3-yl)-4-piperidyl]phenyl]-1,3,4-oxadiazol-2-one] were > 50000 nM, 503 fold and 99.4 nM.
For `CN1CC(N2CCC(c3cccc(-c4nn(Cc5ccc(-c6nnc(C(F)F)o6)cn5)c(=O)o4)c3F)CC2)C1` [Compound 27, 3-[[5-[5-(difluoromethyl)-1,3,4-oxadiazol-2-yl]-2-pyridyl]methyl]-5-[2-fluoro-3-[1-(1-methylazetidin-3-yl)-4-piperidyl]phenyl]-1,3,4-oxadiazol-2-one], the IC50 at human recombinant HDAC1 is > 50000 nM. Moreover, on human recombinant HDAC6, the “HDAC6 selectivity (fold)” value came to 420 fold and the IC50 came out at 119 nM.
Regarding `CC(=O)N1CC(N2CCC(c3cccc(-c4nn(Cc5ccc(-c6nnc(C(F)F)o6)cn5)c(=O)o4)c3F)CC2)C1` [Compound 28, 5-[3-[1-(1-acetylazetidine-3-yl)-4-piperidyl]-2-fluoro-phenyl]-3-[[5-[5-(difluoromethyl)-1,3,4-oxadiazol-2-yl]-2-pyridyl]methyl]-1,3,4-oxadiazol-2-one], the half-inhibitory concentration (IC50) at human recombinant HDAC1 was > 50000 nM. In addition, on human recombinant HDAC6, the “HDAC6 selectivity (fold)” value was 626 fold and the IC50 stood at 79.9 nM.
The corresponding values for `CN1CCC(c2ccc(-c3nn(Cc4ccc(-c5nnc(C(F)F)o5)cn4)c(=O)o3)cc2)CC1` [Compound 29, 3-[[5-[5-(difluoromethyl)-1,3,4-oxadiazol-2-yl]-2-pyridyl]methyl]-5-[4-(1-methyl-4-piperidyl)phenyl]-1,3,4-oxadiazol-2-one] are > 50000 nM, 745 fold and 67.1 nM.
As for `CC(C)N1CCC(c2ccc(-c3nn(Cc4ccc(-c5nnc(C(F)F)o5)cn4)c(=O)o3)cc2)CC1` [Compound 30, 3-[[5-[5-(difluoromethyl)-1,3,4-oxadiazol-2-yl]-2-pyridyl]methyl]-5-[4-(1-isopropyl-4-piperidyl)phenyl]-1,3,4-oxadiazol-2-one], at human recombinant HDAC1, the IC50 is > 50000 nM. Besides, at human recombinant HDAC6, the “HDAC6 selectivity (fold)” value amounted to 518 fold and the half-maximal inhibitory concentration (IC50) was found to be 96.5 nM.
Taken in the same sequence, the figures for `Cn1ccc2ccc(-c3nn(Cc4ccc(-c5nnc(C(F)F)o5)cn4)c(=O)o3)cc21` [Compound 31, 3-[[5-[5-(difluoromethyl)-1,3,4-oxadiazol-2-yl]-2-pyridyl]methyl]-5-(1-methylindol-6-yl)-1,3,4-oxadiazol-2-one] were > 50000 nM, 643 fold and 77.8 nM.
In the case of `Cn1ccc2cc(-c3nn(Cc4ccc(-c5nnc(C(F)F)o5)cn4)c(=O)o3)cnc21` [Compound 32, 3-[[5-[5-(difluoromethyl)-1,3,4-oxadiazol-2-yl]-2-pyridyl]methyl]-5-(1-methylpyrrolo[2,3-b]pyridin-5-yl)-1,3,4-oxadiazol-2-one], the IC50 on human recombinant HDAC1 is > 50000 nM. On human recombinant HDAC6, the “HDAC6 selectivity (fold)” value came out at 774 fold and the IC50 is 64.6 nM.
The corresponding values for `O=c1oc(-c2ccc3cc[nH]c3c2)nn1Cc1ccc(-c2nnc(C(F)F)o2)cn1` [Compound 33, 3-[[5-[5-(difluoromethyl)-1,3,4-oxadiazol-2-yl]-2-pyridyl]methyl]-5-(1H-indole-6-yl)-1,3,4-oxadiazol-2-one] are > 50000 nM, 1506 fold and 33.2 nM.
Taken in the same sequence, the figures for `O=c1oc(-c2cccc3[nH]ccc23)nn1Cc1ccc(-c2nnc(C(F)F)o2)cn1` [Compound 34, 3-[[5-[5-(difluoromethyl)-1,3,4-oxadiazol-2-yl]-2-pyridyl]methyl]-5-(1H-indol-4-yl)-1,3,4-oxadiazol-2-one] were > 50000 nM, 1695 fold and 29.5 nM.
Taken in the same sequence, the figures for `O=c1oc(-c2cccc3[nH]ccc23)nn1Cc1ncc(-c2nnc(C(F)F)o2)cc1F` [Compound 35, 3-[[5-[5-(difluoromethyl)-1,3,4-oxadiazol-2-yl]-3-fluoro-2-pyridyl]methyl]-5-(1H-indol-4-yl)-1,3,4-oxadiazol-2-one] were > 50000 nM, 643 fold and 77.8 nM.
For the molecule `O=c1oc(-c2cccc(N3CCNCC3)c2)nn1Cc1ccc(-c2nnc(C(F)F)o2)cn1` [Compound 36, 3-[[5-[5-(difluoromethyl)-1,3,4-oxadiazol-2-yl]-2-pyridyl]methyl]-5-(3-piperazin-1-ylphenyl)-1,3,4-oxadiazol-2-one], the IC50 on human recombinant HDAC1 was > 50000 nM. At human recombinant HDAC6, the “HDAC6 selectivity (fold)” value is 640 fold and the IC50 stood at 78.1 nM.
